How the values were obtained:
Splenocyte [1] = experiment: Immunosuppressive activity in BALB/c mouse splenocytes assessed as inhibition of LPS-induced B cell proliferation incubated for 48 hrs by CCK-8 assay; format: functional, cell-based
RAW264.7 = experiment: Antiinflammatory activity against mouse RAW264.7 cells assessed as reduction of LPS-induced NO production preincubated for 2 hrs followed by LPS-stimulation and measured after 12 hrs by Griess reagent assay; format: functional, cell-based
Splenocyte [2] = experiment: Immunosuppressive activity in BALB/c mouse splenocytes assessed as inhibition of ConA-induced T cell proliferation incubated for 48 hrs by CCK-8 assay; format: functional, cell-based
Candida albicans = experiment: Antifungal activity against Candida albicans ATCC10231 assessed as reduction in microbial growth incubated for 16 hrs by broth microdilution method; format: functional
[3] = target: T1, 3-hydroxy-3-methylglutaryl-coenzyme A reductase (Homo sapiens, UniProt P04035); experiment: Inhibition of human HMGR
T1 sequence (P04035 whole entry): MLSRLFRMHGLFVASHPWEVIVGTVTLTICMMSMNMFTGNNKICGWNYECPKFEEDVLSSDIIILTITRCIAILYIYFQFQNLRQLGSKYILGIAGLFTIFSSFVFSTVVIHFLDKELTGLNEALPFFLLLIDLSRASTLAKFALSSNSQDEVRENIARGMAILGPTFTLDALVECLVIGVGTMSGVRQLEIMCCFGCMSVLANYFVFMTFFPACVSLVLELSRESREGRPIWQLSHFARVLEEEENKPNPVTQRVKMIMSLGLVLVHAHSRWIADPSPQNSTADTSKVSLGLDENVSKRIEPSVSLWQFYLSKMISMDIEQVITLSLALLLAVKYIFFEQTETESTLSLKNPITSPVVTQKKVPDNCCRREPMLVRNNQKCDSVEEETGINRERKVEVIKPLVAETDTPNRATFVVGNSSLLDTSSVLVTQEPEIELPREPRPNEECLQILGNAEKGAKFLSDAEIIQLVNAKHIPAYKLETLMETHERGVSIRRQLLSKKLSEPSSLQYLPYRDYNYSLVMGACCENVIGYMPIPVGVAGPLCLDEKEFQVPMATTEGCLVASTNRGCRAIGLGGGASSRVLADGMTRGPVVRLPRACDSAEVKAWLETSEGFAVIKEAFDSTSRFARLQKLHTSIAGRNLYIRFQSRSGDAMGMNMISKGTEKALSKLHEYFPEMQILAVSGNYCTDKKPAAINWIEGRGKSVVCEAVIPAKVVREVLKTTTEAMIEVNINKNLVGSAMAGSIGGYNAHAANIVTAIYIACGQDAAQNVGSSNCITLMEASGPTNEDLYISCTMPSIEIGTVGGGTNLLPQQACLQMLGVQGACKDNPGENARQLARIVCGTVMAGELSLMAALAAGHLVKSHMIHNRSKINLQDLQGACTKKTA

Structure (SMILES) | IC50 (Splenocyte [1]) [µM] | IC50 (RAW264.7) [µM] | IC50 (Splenocyte [2]) [µM] | MIC (Candida albicans) [µg/mL] | IC50 [3] [µM]
C=C1[C@H]2[C@@H](O)C[C@@](C)(O)[C@H]2C[C@@]2(C)CC[C@H]([C@@H](C)CC/C=C(\C)C(=O)O)[C@@H]2C[C@@H]1O | > 40 | > 40 | > 40 |  | 
CC(C)=C/C=C/[C@H](C)[C@H]1CC[C@]2(C)C[C@@]3(O)[C@H](C)C[C@@H](O)[C@@H]3/C(CO)=C\C[C@@H]12 | > 40 | > 40 | > 40 |  | 
CC1=CC(=O)[C@H]2/C(CO)=C\C[C@H]3[C@@H]([C@@H](C)/C=C\[C@@H]4OC4(C)C)CC[C@]3(C)C[C@H]12 | > 40 | > 40 | > 40 |  | 
CC(C)=C/C=C\[C@H](C)[C@H]1CC[C@]2(C)C[C@@H]3C(=O)C=C4C3=C(CC[C@@H]12)C(=O)N4CCO | 25.4 | > 40 | > 40 |  | 
CC(C)=C[C@H]1C[C@H](C)[C@]2(CC[C@]3(C)C[C@@H]4C(=O)C=C5C4=C(CC[C@H]32)C(=O)N5CCO)O1 |  |  |  | 4 | 2.5
CC(C)=C/C=C\[C@H](C)[C@H]1CC[C@]2(C)C[C@@H]3C(C)=CC(=O)[C@H]3[C@H](CO)CC[C@@H]12 | > 40 | 8.31 | > 40 |  | 
CC1=CC(=O)/C2=C(\CO)CC[C@H]3[C@@H]([C@@H](C)CC/C=C(\C)C(=O)O)CC[C@]3(C)C[C@H]12 | > 40 | > 40 | > 40 |  | 
CC(C)=C/C=C\[C@H](C)[C@H]1CC[C@]2(C)C[C@@]3(O)[C@H](C)CC[C@@H]3/C(CO)=C\C[C@@H]12 | > 40 | > 40 | 15.6 |  | 
C/C1=C/C[C@H]2[C@@H]([C@@H](C)CC/C=C(\C)CO)CC[C@]2(C)C[C@@]2(O)[C@H](C)CC[C@H]12 | > 40 | > 40 | 2.29 |  | 
C=C1[C@H]2[C@H](O)C[C@@](C)(O)[C@H]2C[C@@]2(C)CC[C@H]([C@@H](C)CC/C=C(\C)C(=O)O)[C@@H]2C[C@@H]1O | > 40 | > 40 | 10.8 |  | 
C=C1[C@H]2CC[C@@](C)(O)[C@H]2C[C@@]2(C)CC[C@H]([C@@H](C)CC/C=C(\C)CO)[C@@H]2C[C@@H]1O | 19.4 | > 40 | > 40 |  | 
CC(C)=C/C=C\[C@H](C)[C@H]1CC[C@]2(C)C[C@@]3(O)[C@H](C)C[C@@H](O)[C@@H]3/C(CO)=C\C[C@@H]12 | > 40 | > 40 | 35.8 |  | 
C[C@@H]1C[C@H]2[C@@H]3CCC4=CC(=O)C=C[C@]4(C)[C@@]3(F)[C@@H](O)C[C@]2(C)[C@@]1(O)C(=O)CO [DEXAMETHASONE] | 0.47 |  | 0.04 |  | 
CC(C)=CCC[C@H](C)[C@H]1CC[C@]2(C)C[C@@]3(O)[C@H](C)CC[C@@H]3/C(CO)=C\C[C@@H]12 | > 40 | > 40 | > 40 |  | 
